Source: patent US9512075B2 (OKAYAMA UNIVERSITY, priority 2012, dated 2016)
In brackets after ≈: the same amount, converted by molar mass. Like-named read-outs stand apart in the source and are kept apart here.

Columns and labels:
Assay type in all cases: cell-based
[1] = system: Staphylococcus aureus Smith strain; experiment: MIC for Staphylococcus aureus Smith strain; settings: read-out: MIC Straphyrococcus aureus Smith
[2] = system: Staphylococcus aureus 209P strain; experiment: MIC for Staphylococcus aureus 209P strain; settings: Staphylococcus aureus; 209P strain; regular bouillon medium, 37° C. overnight, turbidity; read-out: MIC Straphyrococcus aureus 209P
[3] = system: Staphylococcus aureus MRSA No. 17 (methicillin-resistant Staphylococcus aureus: MRSA); experiment: MIC for Staphylococcus aureus MRSA No. 17; settings: read-out: MIC Straphyrococcus aureus MRSA No. 17 (MRSA)
[4] = system: Enterococcus faecalis 5038 strain; experiment: MIC for Enterococcus faecalis 5038 strain; settings: read-out: MIC Enterococcus faecalis 5038
[5] = system: Enterococcus faecalis NCTC12201 strain (vancomycin-resistant Enterococcus: VRE); experiment: MIC for Enterococcus faecalis NCTC12201 strain (VRE); settings: read-out: MIC Enterococcus faecalis NCTC 12201 (VRE)
[6] = system: Clostridium difficile JCM1296 strain; experiment: microbe, parasite or virus in culture; settings: Clostridioides difficile, JCM1296, read-out: MIC Clostridium difficile JCM1296
[7] = system: Clostridium perfringens PB6K strain; experiment: microbe, parasite or virus in culture; settings: Clostridium perfringens, PB6KSTRAIN, read-out: MIC Clostridium perfringens PB6K, PB6K strain; CD medium, 37° C. overnight, 10% CO2-containing anaerobic conditions
[8] = system: Escherichia coli K-12 strain; experiment: MIC for Escherichia coli K-12 strain; settings: Escherichia coli, K12STRAIN; K-12 strain; regular bouillon medium, 37° C. overnight, turbidity; read-out: MIC Escherichia coli K12
[9] = system: Escherichia coli BE1121 strain; experiment: MIC for Escherichia coli BE1121 strain; settings: Escherichia coli, BE1121STRAIN; BE1121 strain; regular bouillon medium, 37° C. overnight, turbidity; read-out: MIC Escherichia coli BE1121
[10] = Smith strain, regular bouillon medium, 37° C. overnight, turbidity
[11] = MRSA No. 17, regular bouillon medium, 37° C. overnight, turbidity
[12] = 5038 strain, Heart Infusion Broth medium, 37° C. overnight, turbidity
[13] = NCTC12201 strain (VRE), Heart Infusion Broth medium, 37° C. overnight, turbidity

Structure (SMILES) | MIC [1, 10] | MIC [2] | MIC [3, 11] | MIC [4, 12] | MIC [5, 13] | MIC [6] | MIC [7] | MIC [8] | MIC [9] | MIC [1] | MIC ([4]; 5038STRAIN) | MIC [5] | MIC ([3]; MRSA)
CCCCC1CCC(C(O)=C2C(=O)N(C(C)=O)c3ccccc32)CC1 (stereo not drawn) [A010, N-acetyl-3-(4-butylcyclohexylcarbonyl)-2-oxyindole] | 0.5 µg/mL (≈ 1.46 µM) | 2 µg/mL (≈ 5.86 µM) | 1 µg/mL (≈ 2.93 µM) | 0.5 µg/mL (≈ 1.46 µM) | 0.5 µg/mL (≈ 1.46 µM) | 0.25 µg/mL (≈ 0.732 µM) | 1 µg/mL (≈ 2.93 µM) | 256 µg/mL (≈ 750 µM) | 256 µg/mL (≈ 750 µM) | – | – | – | –
CCCCCCCCCCOCC(O)=C1C(=O)N(C(C)=O)c2cc(Cl)ccc21 [A017, N-acetyl-3-decyloxyacetyl-6-chloro-2-oxyindole] | – | 128 µg/mL (≈ 314 µM) | 16 µg/mL (≈ 39.2 µM) | – | – | < 0.125 µg/mL | < 0.125 µg/mL | 128 µg/mL (≈ 314 µM) | 128 µg/mL (≈ 314 µM) | < 0.125 µg/mL | < 0.125 µg/mL | < 0.125 µg/mL | –
CCCCCCCCCC(=O)N1C(=O)C(=C(O)c2ccccc2O)c2ccccc21 [A063, N-decanoyl-3-(2-hydroxybenzoyl)-2-oxyindole] | – | 256 µg/mL (≈ 628 µM) | – | – | – | 16 µg/mL (≈ 39.3 µM) | 256 µg/mL (≈ 628 µM) | 128 µg/mL (≈ 314 µM) | 128 µg/mL (≈ 314 µM) | 256 µg/mL (≈ 628 µM) | 256 µg/mL (≈ 628 µM) | 256 µg/mL (≈ 628 µM) | 256 µg/mL (≈ 628 µM)
CCCCCCCCCC(O)=C1C(=O)N(C(=O)Nc2ccccc2)c2ccc(Br)cc21 [A033, N-(phenylaminocarbonyl)-5-bromo-3-decanoyl-2-oxyindole] | 256 µg/mL (≈ 527 µM) | 256 µg/mL (≈ 527 µM) | 256 µg/mL (≈ 527 µM) | 256 µg/mL (≈ 527 µM) | 256 µg/mL (≈ 527 µM) | 0.5 µg/mL (≈ 1.03 µM) | 0.5 µg/mL (≈ 1.03 µM) | 256 µg/mL (≈ 527 µM) | 128 µg/mL (≈ 264 µM) | – | – | – | –
CCCCC1CCC(C(O)=C2C(=O)N(C(=O)Nc3ccc(Br)cc3)c3ccccc32)CC1 (stereo not drawn) [A040, N-(4-bromophenylaminocarbonyl)-3-(4-butylcyclohexylcarbonyl)-2-oxyindole] | 2 µg/mL (≈ 4.02 µM) | 128 µg/mL (≈ 257 µM) | 128 µg/mL (≈ 257 µM) | 1 µg/mL (≈ 2.01 µM) | 1 µg/mL (≈ 2.01 µM) | 8 µg/mL (≈ 16.1 µM) | 4 µg/mL (≈ 8.04 µM) | 256 µg/mL (≈ 515 µM) | 256 µg/mL (≈ 515 µM) | – | – | – | –
CCCCCCCCNC(=O)c1c(O)c2ccccc2oc1=O [B020, 3-(octylaminocarbonyl)-4-hydroxycoumarin] | 8 µg/mL (≈ 25.2 µM) | 8 µg/mL (≈ 25.2 µM) | 16 µg/mL (≈ 50.4 µM) | 1 µg/mL (≈ 3.15 µM) | 1 µg/mL (≈ 3.15 µM) | 1 µg/mL (≈ 3.15 µM) | 8 µg/mL (≈ 25.2 µM) | 64 µg/mL (≈ 202 µM) | 32 µg/mL (≈ 101 µM) | – | – | – | –
CCCCCCCCCC(=O)c1c(O)c2cc(C)ccc2oc1=O [B012, 3-decanoyl-6-methyl-4-hydroxycoumarin] | 0.5 µg/mL (≈ 1.51 µM) | 0.5 µg/mL (≈ 1.51 µM) | 0.5 µg/mL (≈ 1.51 µM) | 0.25 µg/mL (≈ 0.757 µM) | 0.25 µg/mL (≈ 0.757 µM) | 0.25 µg/mL (≈ 0.757 µM) | 0.5 µg/mL (≈ 1.51 µM) | 256 µg/mL (≈ 775 µM) | 256 µg/mL (≈ 775 µM) | – | – | – | –
CCCCCCCCCCOCC(O)=C1C(=O)N(C(=O)Nc2ccccc2)c2ccccc21 [A019, N-(phenylaminocarbonyl)-3-decyloxyacetyl-2-oxyindole] | 4 µg/mL (≈ 8.88 µM) | 256 µg/mL (≈ 568 µM) | 256 µg/mL (≈ 568 µM) | 1 µg/mL (≈ 2.22 µM) | 4 µg/mL (≈ 8.88 µM) | 0.5 µg/mL (≈ 1.11 µM) | 2 µg/mL (≈ 4.44 µM) | 256 µg/mL (≈ 568 µM) | 128 µg/mL (≈ 284 µM) | – | – | – | –
CCCCCCCCCC(O)=C1C(=O)N(C(=O)Nc2ccccc2)c2ccc(F)cc21 [A044, N-(phenylaminocarbonyl)-3-decanoyl-5-fluoro-2-oxyindole] | 0.25 µg/mL (≈ 0.589 µM) | 256 µg/mL (≈ 603 µM) | 256 µg/mL (≈ 603 µM) | 1 µg/mL (≈ 2.36 µM) | 0.5 µg/mL (≈ 1.18 µM) | < 0.125 µg/mL | < 0.125 µg/mL | 256 µg/mL (≈ 603 µM) | 256 µg/mL (≈ 603 µM) | – | – | – | –
